From the supplement of paper PMC10307832

Legend:
Test in all cases: relative viability (nuclei count vs DMSO), 5 days (fraction); higher = more cells survive
A-427 = test system: A-427
Procedure, shortened: (§1)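 Lung cancer cell lines in 1536-well plates were dosed by pin tool the day after seeding, either with one drug alone or with a fixed anchor-drug dose plus five library-drug doses (not always all listed) in √10 steps. After 5 days, cells were fixed and their nuclei stained in one step (final 0.05% Triton X-100, 1% formaldehyde, 1 ug/ml Hoechst), then counted on 4× images. Relative viability is the nuclei count in treated wells divided by that in vehicle wells. Values are medians of duplicate plates.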

COR-L23 = test system: COR-L23
Procedure, shortened: as §1

ChaGo-K-1 = test system: ChaGo-K-1
Procedure, shortened: as §1

EMC-BAC-2 = test system: EMC-BAC-2
Procedure, shortened: as §1

HARA = test system: HARA
Procedure, shortened: as §1

HCC-15 = test system: HCC-15
Procedure, shortened: as §1

HCC-366 = test system: HCC-366
Procedure, shortened: as §1

HCC-78 = test system: HCC-78
Procedure, shortened: as §1

LC-2-ad = test system: LC-2-ad
Procedure, shortened: as §1

LK-2 = test system: LK-2
Procedure, shortened: as §1

NCI-H1650 = test system: NCI-H1650
Procedure, shortened: as §1

NCI-H1734 = test system: NCI-H1734
Procedure, shortened: as §1

**Q.** Which relative viability (A-427; first compound 0.04 µM) does the source give for COc1cc(N2CCC(C(N)=O)CC2)ccc1Nc1nc(N)c(Cl)c(Nc2ccccc2S(=O)(=O)C(C)C)n1 [HG-5-88-01] + CC1(C)CCC(c2ccc(Cl)cc2)=C(CN2CCN(c3ccc(C(=O)NS(=O)(=O)c4ccc(N[C@H](CCN5CCOCC5)CSc5ccccc5)c(S(=O)(=O)C(F)(F)F)c4)cc3)CC2)C1 [Navitoclax] (partner 0.5 µM) here?
**A.** Its relative viability is 0.97.

**Q.** What about the relative viability (A-427; first compound 0.1265 µM) of the same molecule?
**A.** Its relative viability is 1.04.

**Q.** What about the relative viability (A-427; first compound 0.4 µM) of the same molecule?
**A.** Its relative viability is 0.956.

**Q.** And the relative viability (A-427; first compound 1.265 µM)?
**A.** Its relative viability is 1.04.

**Q.** And the relative viability (A-427; first compound 4 µM)?
**A.** Its relative viability is 0.835.

**Q.** And the relative viability (COR-L23; first compound 0.04 µM)?
**A.** Its relative viability is 0.936.

**Q.** What about the relative viability (COR-L23; first compound 0.1265 µM) of the same molecule?
**A.** The relative viability was 1.

**Q.** And the relative viability (COR-L23; first compound 0.4 µM)?
**A.** The relative viability was 0.998.

**Q.** What about the relative viability (COR-L23; first compound 1.265 µM) of the same molecule?
**A.** The relative viability was 0.883.

**Q.** What about the relative viability (COR-L23; first compound 4 µM) of the same molecule?
**A.** The relative viability was 0.98.

**Q.** And the relative viability (ChaGo-K-1; first compound 0.04 µM)?
**A.** The relative viability was 1.05.

**Q.** What about the relative viability (ChaGo-K-1; first compound 0.1265 µM) of the same molecule?
**A.** The relative viability was 1.09.

**Q.** What about the relative viability (ChaGo-K-1; first compound 0.4 µM) of the same molecule?
**A.** The relative viability was 0.726.

**Q.** And the relative viability (ChaGo-K-1; first compound 1.265 µM)?
**A.** Its relative viability is 1.12.

**Q.** And the relative viability (ChaGo-K-1; first compound 4 µM)?
**A.** The relative viability was 0.762.

**Q.** What about the relative viability (EMC-BAC-2; first compound 0.04 µM) of the same molecule?
**A.** Its relative viability is 1.11.

**Q.** What about the relative viability (EMC-BAC-2; first compound 0.1265 µM) of the same molecule?
**A.** Its relative viability is 1.23.

**Q.** And the relative viability (EMC-BAC-2; first compound 0.4 µM)?
**A.** Its relative viability is 1.12.

**Q.** And the relative viability (EMC-BAC-2; first compound 1.265 µM)?
**A.** Its relative viability is 1.05.

**Q.** What about the relative viability (EMC-BAC-2; first compound 4 µM) of the same molecule?
**A.** Its relative viability is 1.22.

**Q.** What about the relative viability (HARA; first compound 0.04 µM) of the same molecule?
**A.** Its relative viability is 1.16.

**Q.** What about the relative viability (HARA; first compound 0.1265 µM) of the same molecule?
**A.** The relative viability was 1.14.

**Q.** What about the relative viability (HARA; first compound 0.4 µM) of the same molecule?
**A.** The relative viability was 1.13.

**Q.** What about the relative viability (HARA; first compound 1.265 µM) of the same molecule?
**A.** Its relative viability is 1.19.

**Q.** And the relative viability (HARA; first compound 4 µM)?
**A.** Its relative viability is 1.18.

**Q.** What about the relative viability (HCC-15; first compound 0.04 µM) of the same molecule?
**A.** The relative viability was 0.702.

**Q.** What about the relative viability (HCC-15; first compound 0.1265 µM) of the same molecule?
**A.** The relative viability was 0.74.

**Q.** And the relative viability (HCC-15; first compound 0.4 µM)?
**A.** The relative viability was 0.672.

**Q.** And the relative viability (HCC-15; first compound 1.265 µM)?
**A.** The relative viability was 0.723.

**Q.** What about the relative viability (HCC-15; first compound 4 µM) of the same molecule?
**A.** The relative viability was 0.464.

**Q.** And the relative viability (HCC-366; first compound 0.04 µM)?
**A.** The relative viability was 0.952.

**Q.** And the relative viability (HCC-366; first compound 0.1265 µM)?
**A.** Its relative viability is 1.04.

**Q.** And the relative viability (HCC-366; first compound 0.4 µM)?
**A.** The relative viability was 0.79.

**Q.** What about the relative viability (HCC-366; first compound 1.265 µM) of the same molecule?
**A.** Its relative viability is 1.02.

**Q.** What about the relative viability (HCC-366; first compound 4 µM) of the same molecule?
**A.** The relative viability was 1.29.

**Q.** And the relative viability (HCC-78; first compound 0.04 µM)?
**A.** Its relative viability is 0.749.

**Q.** And the relative viability (HCC-78; first compound 0.1265 µM)?
**A.** Its relative viability is 0.555.

**Q.** And the relative viability (HCC-78; first compound 0.4 µM)?
**A.** Its relative viability is 0.363.

**Q.** What about the relative viability (HCC-78; first compound 1.265 µM) of the same molecule?
**A.** Its relative viability is 0.158.

**Q.** What about the relative viability (HCC-78; first compound 4 µM) of the same molecule?
**A.** The relative viability was 0.297.

**Q.** And the relative viability (LC-2-ad; first compound 0.04 µM)?
**A.** The relative viability was 0.444.

**Q.** What about the relative viability (LC-2-ad; first compound 0.1265 µM) of the same molecule?
**A.** Its relative viability is 0.45.

**Q.** And the relative viability (LC-2-ad; first compound 0.4 µM)?
**A.** Its relative viability is 0.477.

**Q.** And the relative viability (LC-2-ad; first compound 1.265 µM)?
**A.** Its relative viability is 0.379.

**Q.** And the relative viability (LC-2-ad; first compound 4 µM)?
**A.** The relative viability was 0.278.

**Q.** And the relative viability (LK-2; first compound 0.04 µM)?
**A.** Its relative viability is 0.872.

**Q.** What about the relative viability (LK-2; first compound 0.1265 µM) of the same molecule?
**A.** The relative viability was 1.03.

**Q.** And the relative viability (LK-2; first compound 0.4 µM)?
**A.** The relative viability was 0.805.

**Q.** What about the relative viability (LK-2; first compound 1.265 µM) of the same molecule?
**A.** The relative viability was 0.377.

**Q.** What about the relative viability (LK-2; first compound 4 µM) of the same molecule?
**A.** The relative viability was 0.541.

**Q.** What about the relative viability (NCI-H1650; first compound 0.04 µM) of the same molecule?
**A.** The relative viability was 1.54.

**Q.** What about the relative viability (NCI-H1650; first compound 0.1265 µM) of the same molecule?
**A.** The relative viability was 1.32.

**Q.** What about the relative viability (NCI-H1650; first compound 0.4 µM) of the same molecule?
**A.** The relative viability was 1.26.

**Q.** What about the relative viability (NCI-H1650; first compound 1.265 µM) of the same molecule?
**A.** The relative viability was 0.918.

**Q.** And the relative viability (NCI-H1650; first compound 4 µM)?
**A.** The relative viability was 1.07.

**Q.** And the relative viability (NCI-H1734; first compound 0.04 µM)?
**A.** Its relative viability is 0.771.

**Q.** And the relative viability (NCI-H1734; first compound 0.1265 µM)?
**A.** The relative viability was 0.858.
